Source: ChEMBL document CHEMBL1143405, “Retapamulin inhibition of translation and 50S ribosomal subunit formation in Staphylococcus aureus cells” (Antimicrob Agents Chemother, 2007)
Converted amounts (≈) assume the structure as drawn. The source made the active and inactive calls. The calls are words filed in the database; no cut-off is given here.

How the values were obtained:
Staphylococcus aureus [1] = assay: Inhibition of total viable cell number in wild type Staphylococcus aureus RN1786; type: functional, organism-based
Staphylococcus aureus [2] = assay: Inhibition of ribosomal 50S subunit synthesis in methicillin-resistant Staphylococcus aureus A1024; type: functional, organism-based
Staphylococcus aureus [3] = assay: Reduction of 23S rRNA level in wild type Staphylococcus aureus RN1786 at 20 ng/mL by agilent bioanalyzer analysis; type: functional; parameters: scale not given: the % may be the effect or the level left
Staphylococcus aureus [4] = assay: Reduction of 23S rRNA level in methicillin-resistant Staphylococcus aureus A1024 at 10 ng/mL by agilent bioanalyzer analysis; type: functional; parameters: scale not given: the % may be the effect or the level left
Staphylococcus aureus [5] = assay: Inhibition of ribosomal 30S subunit formation in wild type Staphylococcus aureus RN1786; type: functional, organism-based
Staphylococcus aureus [6] = assay: Effect on 16S rRNA level in methicillin-resistant Staphylococcus aureus A1024 at 20 ng/mL by agilent bioanalyzer analysis; type: functional
Staphylococcus aureus [7] = assay: Increase in small RNA level in methicillin-resistant Staphylococcus aureus A1024 at 20 ng/mL by agilent bioanalyzer analysis; type: functional
Staphylococcus aureus [8] = assay: Inhibition of ribosomal 30S subunit formation in methicillin-resistant Staphylococcus aureus A1024; type: functional, organism-based
Staphylococcus aureus [9] = assay: Effect on 16S rRNA level in methicillin-resistant Staphylococcus aureus A1024 at 10 ng/mL by agilent bioanalyzer analysis; type: functional
Staphylococcus aureus [10] = assay: Increase in small RNA level in methicillin-resistant Staphylococcus aureus A1024 at 10 ng/mL by agilent bioanalyzer analysis; type: functional
Staphylococcus aureus [11] = assay: Reduction of 23S rRNA level in methicillin-resistant Staphylococcus aureus A1024 at 20 ng/mL by agilent bioanalyzer analysis; type: functional; parameters: scale not given: the % may be the effect or the level left
Staphylococcus aureus [12] = assay: Inhibition of protein synthesis in wild type Staphylococcus aureus RN1786; type: functional, organism-based
Staphylococcus aureus [13] = assay: Effect on 16S rRNA level in wild type Staphylococcus aureus RN1786 at 10 ng/mL by agilent bioanalyzer analysis; type: functional
Staphylococcus aureus [14] = assay: Antibacterial activity against methicillin-resistant Staphylococcus aureus A1024; type: functional
Staphylococcus aureus [15] = assay: Inhibition of protein synthesis in methicillin-resistant Staphylococcus aureus A1024; type: functional, organism-based
Staphylococcus aureus [16] = assay: Inhibition of ribosomal 50S subunit synthesis in wild type Staphylococcus aureus RN1786; type: functional, organism-based
Staphylococcus aureus [17] = assay: Antibacterial activity against wild type Staphylococcus aureus RN1786; type: functional
Staphylococcus aureus [18] = assay: Increase in small RNA level in wild type Staphylococcus aureus RN1786 at 10 ng/mL by agilent bioanalyzer analysis; type: functional
Staphylococcus aureus [19] = assay: Inhibition of ribosomal 50S subunit synthesis in wild type Staphylococcus aureus RN1786 at 8 ng/mL by [3H]uridine pulse-chase labeling method; type: functional, organism-based
Staphylococcus aureus [20] = assay: Increase in small RNA level in wild type Staphylococcus aureus RN1786 at 20 ng/mL by agilent bioanalyzer analysis; type: functional
Staphylococcus aureus [21] = assay: Effect on 16S rRNA level in wild type Staphylococcus aureus RN1786 at 20 ng/mL by agilent bioanalyzer analysis; type: functional
Staphylococcus aureus [22] = assay: Inhibition of ribosomal 30S subunit synthesis in methicillin-resistant Staphylococcus aureus A1024 at 8 ng/mL by [3H]uridine pulse-chase labeling method; type: functional, organism-based
Staphylococcus aureus [23] = assay: Inhibition of ribosomal 50S subunit synthesis in methicillin-resistant Staphylococcus aureus A1024 at 8 ng/mL by [3H]uridine pulse-chase labeling method; type: functional, organism-based
Staphylococcus aureus [24] = assay: Inhibition of total viable cell number in methicillin-resistant Staphylococcus aureus A1024; type: functional, organism-based
Staphylococcus aureus [25] = assay: Reduction of 23S rRNA level in wild type Staphylococcus aureus RN1786 at 10 ng/mL by agilent bioanalyzer analysis; type: functional; parameters: scale not given: the % may be the effect or the level left

SMILES: C=C[C@]1(C)C[C@@H](OC(=O)CS[C@@H]2C[C@H]3CC[C@@H](C2)N3C)[C@]2(C)[C@H](C)CC[C@]3(CCC(=O)[C@H]32)[C@@H](C)[C@@H]1O [RETAPAMULIN]
- IC50 (Staphylococcus aureus [1]): 0.012 µg/mL (≈ 0.0232 µM)
- IC50 (Staphylococcus aureus [2]): 0.02 µg/mL (≈ 0.0386 µM)
- Activity (Staphylococcus aureus [3]): 16.6%
- Activity (Staphylococcus aureus [4]): 14.1%
- Activity (Staphylococcus aureus [5]): inactive
- Activity (Staphylococcus aureus [6]): 18.8%
- Activity (Staphylococcus aureus [7]): 57.6%
- Activity (Staphylococcus aureus [8]): inactive
- Activity (Staphylococcus aureus [9]): 18.8%
- Activity (Staphylococcus aureus [10]): 52.3%
- Activity (Staphylococcus aureus [11]): 12.3%
- IC50 (Staphylococcus aureus [12]): 0.005 µg/mL (≈ 0.00966 µM)
- Activity (Staphylococcus aureus [13]): 19.8%
- MIC (Staphylococcus aureus [14]): 0.055 µg/mL (≈ 0.106 µM)
- IC50 (Staphylococcus aureus [15]): 0.017 µg/mL (≈ 0.0328 µM)
- IC50 (Staphylococcus aureus [16]): 0.027 µg/mL (≈ 0.0521 µM)
- MIC (Staphylococcus aureus [17]): 0.035 µg/mL (≈ 0.0676 µM)
- Activity (Staphylococcus aureus [18]): 68.7%
- Activity (Staphylococcus aureus [19]): Active
- Activity (Staphylococcus aureus [20]): 70.6%
- Activity (Staphylococcus aureus [21]): 19.7%
- Activity (Staphylococcus aureus [22]): inactive
- Activity (Staphylococcus aureus [23]): Active
- IC50 (Staphylococcus aureus [24]): 0.025 µg/mL (≈ 0.0483 µM)
- Activity (Staphylococcus aureus [25]): 15.3%
